Values of other authors in patent EP1288303A1, “Inducible expression systems employing PPAR transcriptional activators” (Aventis Pharma S.A., priority 2001, dated 2003).

Details: form not soluble in water; doses between 5 and 50 mg/kg, for example 30 mg/kg

SMILES: CN(CCOc1ccc(CC2SC(=O)NC2=O)cc1)c1ccccn1 (stereo not shown) [BRL49653, rosiglitazone]
- plasma concentration: about 15 µg/ml
